These compounds were tested on J774.1a macrophage cells (assay: Macrophage TNF-α production (Assay 2)). Conditions: 10 μg/mL test compound, 100 ng/mL LPS, ELISA.
Assay type: cell-based
Method: Assay 2) Macrophage TNF-α production. J774.1a macrophage cells were treated with 10 μg/mL of test compound dissolved in solvent (e.g. cyclodextran) for 40 minutes prior to the addition of 100 ng/mL LPS. Culture supernatants were collected after 2 hr and 5 hr for TNF-α determination by ELISA.
`Cc1cc(OC(=O)C(N)Cc2cnc[nH]2)cc2c1[C@]1(C)CCC3C(C)(C)CCC[C@]3(C)[C@H]1C2` (some centres unmarked) [Compound 123] was tested, and the “Assay Number 2: Macrophage TNF-α production” value was “+”. `Cc1cc(O)cc2c1[C@]1(C)CCC3C(C)(C)CCC[C@]3(C)[C@@H]1C2` (some centres unmarked) [Compound 124] was tested, and the “Assay Number 2: Macrophage TNF-α production” value was “+”. `Cc1cc(O)cc2c1[C@@]1(C)CCC3C(C)(C)CCC[C@]3(C)[C@H]1C2` (some centres unmarked) [Compound 125] was tested, and the “Assay Number 2: Macrophage TNF-α production” value was “+”. In the case of `COc1cc(C)c2c(c1O)C[C@@H]1[C@@]3(C)CCCC(C)(C)[C@@H]3CC[C@@]21C` [Compound 129], the “Assay Number 2: Macrophage TNF-α production” value is reported as “−”. `CC1(C)CCC[C@@]2(C)C1CC[C@@]1(C)c3c(C(=O)O)cc(O)c(O)c3C[C@@H]12` (some centres unmarked) [Desmethylpelorol, reference compound] was tested, and the “Assay Number 2: Macrophage TNF-α production” value was “+”.

Each compound was assayed on MM cell lines (assay: In vitro Multiple Myeloma (MM) assay (Assay 7)). Conditions: not given.
Assay type: cell-based
Method: Assay 7) In vitro Multiple Myeloma (MM) assay. The ability of SHIP activators to reduce tumor cell survival was assessed in MM cell lines treated with the test compound. The lines OPM1, OPM2, MM.1S and RPMI 8226 were plated at a density of 1×10^5 cells/mL in 200 μL of medium with various concentrations of the test compound, and viable cell numbers were determined on day 3 and day 5 by trypan blue exclusion. The lines RPMI 8226 and U266 were plated at a density of 1×10^6 cells/mL in 250 μL of medium with various concentrations of the test compound. At day 4, the medium of each culture was replaced by fresh medium containing the same concentration of test compound. At day 7, the viable cell number of each culture was determined by trypan blue exclusion.
MM cell lines were cultured in 96 well plates seeded with 3×10^4 cells suspended in 200 μL of medium along with various concentrations of test compound (and associated cyclodextran vehicle control), with LY294002 serving as a positive control in the experiments. After 24-48 hrs of culture, […] of [3H]-thymidine (GE Healthcare, Baie D'Urfe, Canada) being added for the final 8 hours. Cells were harvested and DNA associated radioactivity was measured via liquid scintillation counting using a Wallac Microbeta counter (Perkin-Elmer; Boston, Mass.).
The ability of SHIP activators to reduce tumor cell survival was assessed in multiple myeloma (MM) cell lines treated with Compound 100 or AQX-016A. The lines OPM1, OPM2, MM.1S and RPMI 8226 were plated at a density of 1×10^5 cells/mL in 200 μL of medium with various concentrations of Compound 100, and viable cell numbers were determined on day 3 and day 5 by trypan blue exclusion. The lines RPMI 8226 and U266 were plated at a density of 1×10^6 cells/mL in 250 μL of medium with various concentrations of AQX-016A. At day 4, the medium of each culture was replaced by fresh medium containing the same concentration of AQX-016A. At day 7, the viable cell number of each culture was determined by trypan blue exclusion. Experiments were performed in triplicate.
Proliferation (DNA synthesis) assays. Proliferation was measured by measuring incorporation of [^3H]-thymidine into cells. MM cell lines were cultured in 96 well plates seeded with 3×10^4 cells suspended in 200 μL, of medium along with various concentrations of Compound 100 or AQX-016A (and associated cyclodextran vehicle control), with LY294002 serving as a positive control in the indicated experiments. After 24-48 hrs of culture, 1 μCi of [^3H]-thymidine (GE Healthcare, Baie D'Urfe, Canada) being added for the final 8 hours. Plates were frozen, which also aided in cell lysis, to terminate the experiments. Cells were then harvested onto glass fibre filters using an automatic cell harvester (TomTech; Orange, Conn.) and DNA associated radioactivity was measured via liquid scintillation counting using a Wallac Microbeta counter (Perkin-Elmer; Boston, Mass.). Wells were set up in triplicate and data is expressed as mean+/−SEM.
In the case of `CC1(C)CCC[C@]2(C)[C@H]3Cc4cc(O)cc(O)c4[C@]3(C)CC[C@@H]12` [Compound 115], the “Assay Number 7: In vitro Multiple Myeloma (MM) assay” value is reported as “+”. With `Cc1cc(O)cc2c1[C@]1(C)CCC3C(C)(C)CCC[C@]3(C)[C@@H]1C2` (some centres unmarked) [Compound 124] the “Assay Number 7: In vitro Multiple Myeloma (MM) assay” value was “+”. `Cc1cc(O)cc2c1[C@@]1(C)CCC3C(C)(C)CCC[C@]3(C)[C@H]1C2` (some centres unmarked) [Compound 125] was tested, and the “Assay Number 7: In vitro Multiple Myeloma (MM) assay” value was “+”.

What follows are compounds tested on SHIP enzyme (assay: In vitro SHIP enzyme assay (Assay 1)). Conditions: 100 μM inositol-1,3,4,5-tetrakisphosphate, Malachite Green. Note: key: a ‘+’ indicates a positive result for desired activity; a ‘−’ indicates a negative result for desired activity.
Assay type: biochemical
Method: Assay 1) In vitro testing in a SHIP enzyme assay. Test compounds were dissolved in a suitable solvent (e.g. EtOH, DMSO and others) and diluted into aqueous buffer (20 mM Tris HCl, pH 7.5 and 10 mM MgCl2). SHIP enzyme assays were performed in 96-well microtitre plates with 10 ng of enzyme/well in a total volume of 25 μL of 20 mM Tris HCl, pH 7.5 and 10 mM MgCl2. SHIP enzyme was incubated with test extracts (provided in solvent) or vehicle for 15 min at 23° C. before the addition of 100 μM inositol-1,3,4,5-tetrakisphosphate (Echelon Biosciences Inc, Salt Lake City, Utah). After 20 min at 37° C. and the amount of inorganic phosphate released assessed by the addition of Malachite Green reagent and absorbance measurement at 650 nm.
For in vitro testing in the SHIP enzyme assay, AQX-016A and Compound 100 were dissolved in EtOH and diluted into aqueous buffer (20 mM Tris HCl, pH 7.5 and 10 mM MgCl2). The actual concentration of drug in solution was determined by optical density measurement at 280 nm (λmax for both compounds) after high speed centrifugation at 14 000×g for 30 min to remove precipitated drug. For testing on cells, compounds were formulated in the carrier cyclodextrin (Cyclodex Technologies, High Springs, Fla.) at 6 mM (2 mg/mL). For oral administration to animals, compounds were dissolved in 100% cremophore EL (Sigma-Aldrich Canada, Oakville, Ontario) at 150 mM (50 mg/mL) prior to dilution to 6 mM in phosphate buffer saline. However, while these compounds caged in cyclodextrin or formulated in cremophore EL micelles were very soluble in aqueous solution, they could not be used in the SHIP enzyme assays because of interference from both cyclodextrin and cremophore EL.
N-terminal His6 tagged SHIP enzyme was expressed in mammalian 293T cells by transient transfection with pME18S-His-SHIP plasmid and purified to >95% homogeneity by Ni-chelating bead chromatography (Qiagen, Mississauga, Ontario). Recombinant SHIP C2 domain (amino acid residues 725 to 863) was expressed in E. coli transformed with a pET28C expression vector constructed as described below. Recombinant protein purified from the cell lysates by Nichelating bead chromatography was >95% pure.
In vitro SHIP enzyme assay. SHIP enzyme assays were performed in 96-well microtitre plates with 10 ng of enzyme/well in a total volume of 25 μL of 20 mM Tris HCl, pH 7.5 and 10 Mm MgCl2. SHIP enzyme was incubated with test extracts (provided in DMSO) or vehicle for 15 min at 23° C. before the addition of 100 μM inositol-1,3,4,5-tetrakisphosphate (Echelon Biosciences Inc, Salt Lake City, Utah). After 20 min at 37° C. and the amount of inorganic phosphate released assessed by the addition of Malachite Green reagent and absorbance measurement at 650 nm. SHIP2 enzyme was purchased from Echelon Biosciences (Salt Lake City, Utah) and an equivalent amount of inositol phosphatase activity was used in the in vitro enzyme assay. Enzyme data are expressed as the mean of triplicates +/−SEM. Experiments were performed at least 3 times. (FIGS. 7A and 7B).
`Cc1cc(O)c(O)c2c1[C@@]1(C)CCC3C(C)(C)CCC[C@]3(C)[C@H]1C2` (stereo partly drawn) [8 Epi 16A] was tested, and the “Assay Number 1: SHIP enzyme assay” value was “+”. With `COC(=O)c1cc(O)c(O)c2c1[C@@]1(C)CCC3C(C)(C)CCC[C@]3(C)[C@H]1C2` (some centres unmarked) [Compound 8-Epipelorol, 8-Epipelorol] the “Assay Number 1: SHIP enzyme assay” value was “+”. In the case of `COC(=O)c1cc(O)c(O)c2c1[C@]1(C)CCC3C(C)(C)CCC[C@]3(C)[C@@H]1C2` (some centres unmarked) [Compound 9-Epipelorol, 9-Epipelorol], the “Assay Number 1: SHIP enzyme assay” value is reported as “+”. `CC1(C)CCC[C@@]2(C)C1CC[C@@]1(C)c3c(C(=O)O)cc(O)c(O)c3C[C@@H]12` (some centres unmarked) [Desmethylpelorol, reference compound] was tested, and the “Assay Number 1: SHIP enzyme assay” value was “+”. For `COC(=O)c1cc(O)c(O)c2c1[C@]1(C)CCC3C(C)(C)CCC[C@]3(C)[C@H]1C2` (some centres unmarked) [Pelorol, pelorol], the “Assay Number 1: SHIP enzyme assay” value was “+”.

Each compound was assayed on J774.1a macrophage cells (assay: Macrophage TNF-α NO assay (Assay 3)). Conditions: 10 μg/ml test compound, LPS, 24 hr, Griess reagent.
Assay type: cell-based
Method: Assay 3) Macrophage TNF-α NO assay. J774.1a macrophage cells were treated with 10 μg/ml of test compound dissolved in solvent for 40 minutes prior to the addition of LPS. Culture supernatants were collected after 24 hr. for determination of NO concentration using the Griess reagent.
`Cc1cc(OC(=O)C(N)Cc2cnc[nH]2)cc2c1[C@]1(C)CCC3C(C)(C)CCC[C@]3(C)[C@H]1C2` (some centres unmarked) [Compound 123] was tested, and the “Assay Number 3: Macrophage NO” value was “+”. With `Cc1cc(O)cc2c1[C@]1(C)CCC3C(C)(C)CCC[C@]3(C)[C@@H]1C2` (some centres unmarked) [Compound 124] the “Assay Number 3: Macrophage NO” value was “+”. With `Cc1cc(O)cc2c1[C@@]1(C)CCC3C(C)(C)CCC[C@]3(C)[C@H]1C2` (some centres unmarked) [Compound 125] the “Assay Number 3: Macrophage NO” value was “+”. With `COc1cc(C)c2c(c1O)C[C@@H]1[C@@]3(C)CCCC(C)(C)[C@@H]3CC[C@@]21C` [Compound 129] the “Assay Number 3: Macrophage NO” value was “+”. In the case of `CC1(C)CCC[C@@]2(C)C1CC[C@@]1(C)c3c(C(=O)O)cc(O)c(O)c3C[C@@H]12` (some centres unmarked) [Desmethylpelorol, reference compound], the “Assay Number 3: Macrophage NO” value is reported as “+”.

Each compound was assayed on Mast cells (assay: Stimulation of mast cells by FcεRI crosslinking (Assay 4)). Conditions: anti-DNP IgE, DNP-HSA.
Assay type: cell-based
Method: Assay 4) Stimulation of mast cells by FcåRI crosslinking. Mast cells were pre-loaded overnight in BMMC medium lacking IL-3 with 0.1 μg/ml anti-DNP IgE (SPE-7, Sigma, Oakville, Ont). For calcium flux measurements, cells were incubated with 2 μM fura 2-acetoxymethyl ester (Molecular Probes, Eugene, Oreg.) in Tyrode's buffer at 23° C. for 45 min. Cells were then washed and incubated in the presence of the test compound 30 min prior to stimulation with the indicated concentration of DNP-human serum albumin (DNP-HSA). Calcium influx was monitored by spectrofluorometry as described previously. For analysis of intracellular signaling, cells were pre-loaded with anti-DNP IgE as above, pre-treated with the test compound for 30 min at 37° C. and stimulated with 20 ng/ml DNP-HSA for 5 min. Total cell lysates were then prepared and analyzed for phospho-PKB, phospho-p38^MAPK, phospho-MAPK, Grb-2 (Cell Signalling, Mississauga, Ont) and SHIP^6 by immunoblot analysis.
For `Cc1cc(O)cc2c1[C@]1(C)CCC3C(C)(C)CCC[C@]3(C)[C@@H]1C2` (some centres unmarked) [Compound 124], the “Assay Number 4: Stimulation of mast cells by FcεRI crosslinking” value was “+”. `Cc1cc(O)cc2c1[C@@]1(C)CCC3C(C)(C)CCC[C@]3(C)[C@H]1C2` (some centres unmarked) [Compound 125] was tested, and the “Assay Number 4: Stimulation of mast cells by FcεRI crosslinking” value was “+”.

Source: patent publication US20110263539A1, “SHIP 1 MODULATOR COMPOUNDS” (THE UNIVERSITY OF BRITISH COLUMBIA, priority 2006, published 2011)
Throughout, for Assay Number 2: Macrophage TNF-α production: key: a ‘+’ indicates a positive result for desired activity; a ‘−’ indicates a negative result for desired activity.
Throughout, for Assay Number 3: Macrophage NO: key: a ‘+’ indicates a positive result for desired activity; a ‘−’ indicates a negative result for desired activity.
Throughout, for Assay Number 7: In vitro Multiple Myeloma (MM) assay: key: a ‘+’ indicates a positive result for desired activity; a ‘−’ indicates a negative result for desired activity.
